Measurements taken from ChEMBL document CHEMBL1201862, “PubChem BioAssay data set” (2004).
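In this assay, cells in 96-well plates receive the compound at five concentrations for 48 hours. Endpoints are linearly interpolated between the surrounding concentrations. GI50 marks 50% less growth.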 Activity calls are given as the source filed them. No stated cut-off is given here; in the data, active = GI50 up to about 1.1 µM and inactive = higher.

Columns and labels:
Test in all cases: NCI anticancer screen, dose series, 48 h
SK-MEL-5 = system: SK-MEL-5
Malme-3M = system: Malme-3M
SK-OV-3 = system: SK-OV-3
M14 = system: M14
786-0 = system: 786-0
NCI-H226 = system: NCI-H226
SF-268 = system: SF-268
SN12C = system: SN12C
OVCAR-3 = system: OVCAR-3
EKVX = system: EKVX
UACC-62 = system: UACC-62
MCF7 = system: MCF7
OVCAR-5 = system: OVCAR-5
OVCAR-8 = system: OVCAR-8
MDA-N = system: MDA-N
HCT-116 = system: HCT-116
KM12 = system: KM12
LOX IMVI = system: LOX IMVI
SK-MEL-28 = system: SK-MEL-28
A549 = system: A549

Structure (SMILES)	GI50 (SK-MEL-5)	GI50 (Malme-3M)	GI50 (SK-OV-3)	GI50 (M14)	GI50 (786-0)	GI50 (NCI-H226)	GI50 (SF-268)	GI50 (SN12C)	GI50 (OVCAR-3)	GI50 (EKVX)	GI50 (UACC-62)	GI50 (MCF7)	GI50 (OVCAR-5)	GI50 (OVCAR-8)	GI50 (MDA-N)	GI50 (HCT-116)	GI50 (KM12)	GI50 (LOX IMVI)	GI50 (SK-MEL-28)	GI50 (A549)
COc1cccc(OC)c1C1ON=C(c2ccccc2)N1C12CC3CC(CC(C3)C1)C2 (stereo not given)	27.3 µM (inactive)	38.6 µM (inactive)	38.1 µM (inactive)	78 µM (inactive)	42.1 µM (inactive)	> 100 µM (inactive)	> 100 µM (inactive)	> 100 µM (inactive)	> 100 µM (inactive)	> 100 µM (inactive)	> 100 µM (inactive)	> 100 µM (inactive)	46.2 µM (inactive)	> 100 µM (inactive)	> 100 µM (inactive)	51.2 µM (inactive)	> 100 µM (inactive)	> 100 µM (inactive)	> 100 µM (inactive)	64.3 µM (inactive)
O=C1C2=C(CC3=C(C2)CS(=O)(=O)C3)C(=O)C2=C1CC1=C(C2)CS(=O)(=O)C1	16.3 µM (inactive)	5.42 µM (inactive)	38.5 µM (inactive)	> 37.7 µM (inactive)	25.9 µM (inactive)	24.4 µM (inactive)	> 26.4 µM (inactive)	15.3 µM (inactive)	3.35 µM (inactive)	33.2 µM (inactive)	15.8 µM (inactive)	13.2 µM (inactive)	43.4 µM (inactive)	24.2 µM (inactive)	10.3 µM (inactive)	11.7 µM (inactive)	> 19.7 µM (inactive)	14.3 µM (inactive)	> 43.1 µM (inactive)	> 90.2 µM (inactive)
O=C1CCCCCCCCCCC1CN(Cc1ccccc1)Cc1ccccc1 (stereo not given)	13.1 µM (inactive)	29.4 µM (inactive)	54 µM (inactive)	48 µM (inactive)	42.6 µM (inactive)	51.3 µM (inactive)	40 µM (inactive)	> 100 µM (inactive)	44.5 µM (inactive)	36.1 µM (inactive)	13.7 µM (inactive)	23.7 µM (inactive)	> 100 µM (inactive)	75.3 µM (inactive)	40.1 µM (inactive)	17.3 µM (inactive)	83.9 µM (inactive)	22.9 µM (inactive)	37.7 µM (inactive)	40.7 µM (inactive)
CN1CCN(C(=O)c2cn(Cc3cncn3Cc3ccc4c(c3)OCO4)cc2-c2cccc3ccccc23)CC1	9.04 µM (inactive)	3.33 µM (inactive)	22.7 µM (inactive)	0.273 µM (active)	20.9 µM (inactive)	58.1 µM (inactive)	18.5 µM (inactive)	17.5 µM (inactive)	25.5 µM (inactive)	15.3 µM (inactive)	7.96 µM (inactive)	14.2 µM (inactive)	24.8 µM (inactive)	31.6 µM (inactive)	0.378 µM (active)	4.89 µM (inactive)	0.782 µM (active)	4.76 µM (inactive)	4.83 µM (inactive)	16.9 µM (inactive)
Cc1ccc(NCCCN2CCN(CCCNc3ccc(C)c4sc5ccccc5c(=O)c34)CC2)c2c(=O)c3ccccc3sc12	> 100 µM (inactive)	> 100 µM (inactive)	> 100 µM (inactive)	> 100 µM (inactive)	95.5 µM (inactive)	> 100 µM (inactive)	34.2 µM (inactive)	> 100 µM (inactive)	> 100 µM (inactive)	86.3 µM (inactive)	68.7 µM (inactive)	> 100 µM (inactive)	> 100 µM (inactive)	> 100 µM (inactive)	> 100 µM (inactive)	> 100 µM (inactive)	> 100 µM (inactive)	98.4 µM (inactive)	30.5 µM (inactive)	> 100 µM (inactive)
C=C1C(=O)OC2/C=C(/CO)C3(O)CC(O)C(C)(CC(OC(=O)/C(C)=C/C)C12)O3 (stereo not given)	11.1 µM (inactive)	10.2 µM (inactive)	21.4 µM (inactive)	17.7 µM (inactive)	10.1 µM (inactive)	18.5 µM (inactive)	11 µM (inactive)	15.7 µM (inactive)	10.2 µM (inactive)	18.8 µM (inactive)	6.62 µM (inactive)	6.73 µM (inactive)	21 µM (inactive)	7.66 µM (inactive)	10.2 µM (inactive)	6.73 µM (inactive)	20.5 µM (inactive)	11 µM (inactive)	7.64 µM (inactive)	32.8 µM (inactive)
Cc1ccc(S(=O)(=O)N2c3ccccc3[C@H]3CCC=C[C@H]32)cc1	7.4 µM (inactive)	4.07 µM (inactive)	2.54 µM (inactive)	5.5 µM (inactive)	13.2 µM (inactive)	10.5 µM (inactive)	10.9 µM (inactive)	14.5 µM (inactive)	4 µM (inactive)	12.1 µM (inactive)	4.82 µM (inactive)	3.81 µM (inactive)	41.3 µM (inactive)	20.5 µM (inactive)	3.06 µM (inactive)	5.86 µM (inactive)	3.83 µM (inactive)	10.4 µM (inactive)	10.9 µM (inactive)	6.75 µM (inactive)
